Experimental data reported in patent publication US10287301B2 (Achillion Pharmaceuticals, Inc., priority 2015, dated 2019).

Target: Human Factor D (Homo sapiens (Human), UniProt P00746)
Experiment: Human Factor D Assay
Type: biochemical
Conditions: not given
Method in brief: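 Factor D (from human serum) 80 nM final + cpd, 5 min RT, 50 mM Tris/1M NaCl pH 7.5; add Z-L-Lys-SBzl 100 μM and DTNB 100 μM final. IC50 by nonlinear fit of rates vs [cpd].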

Human Factor D, sequence (P00746 26-253): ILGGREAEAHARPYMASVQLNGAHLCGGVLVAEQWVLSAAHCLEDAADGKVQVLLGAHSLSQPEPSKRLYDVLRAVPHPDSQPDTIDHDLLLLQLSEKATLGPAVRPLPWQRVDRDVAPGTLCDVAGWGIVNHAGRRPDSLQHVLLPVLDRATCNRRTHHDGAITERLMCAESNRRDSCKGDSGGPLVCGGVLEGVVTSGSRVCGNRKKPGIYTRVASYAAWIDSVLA

Compound	IC50 [nM]
NC(=O)c1nn(CC(=O)N2C[C@H](F)C[C@H]2C(=O)Nc2cccnc2Cl)c2ccc(-c3ccnnc3)cc12 [Compound 185, 1-(2-((2S,4R)-2-(2-chloropyridin-3-ylcarbamoyl)-4-fluoropyrrolidin-1-yl)-2-oxoethyl)-5-(pyridazin-4-yl)-1H-indazole-3-carboxamide]	1000 to 10000

Same assay, conditions: Human Factor D 80 nM, substrate Z-L-Lys-SBzl; read-out: IC50

Compound	IC50 [nM]
CC(=O)c1cn(CC(=O)N2C[C@H](F)C[C@H]2C(=O)Nc2nccc(Cl)n2)c2ccc(-c3ccnnc3)cc12 [Compound 180, (2S,4R)-1-(2-(3-acetyl-5-(pyridazin-4-yl)-1H-indol-1-yl)acetyl)-N-(4-chloropyrimidin-2-yl)-4-fluoropyrrolidine-2-carboxamide]	> 10000
CC(=O)c1cn(CC(=O)N2C[C@H](F)C[C@H]2C(=O)Nc2ccccc2-c2nncn2C)c2ccc(-c3ccnnc3)cc12 [Compound 181, (2S,4R)-1-(2-(3-acetyl-5-(pyridazin-4-yl)-1H-indol-1-yl)acetyl)-4-fluoro-N-(2-(4-methyl-4H-1,2,4-triazol-3-yl)phenyl) pyrrolidine-2-carboxamide]	> 10000
CC(=O)c1cn(CC(=O)N2C[C@H](F)C[C@H]2C(=O)Nc2noc(-c3ccccc3Cl)n2)c2ccc(-c3ccnnc3)cc12 [Compound 182, (2S,4R)-1-(2-(3-acetyl-5-(pyridazin-4-yl)-1H-indol-1-yl)acetyl)-N-(5-(2-chlorophenyl)-1,2,4-oxadiazol-3-yl)-4-fluoropyrrolidine-2-carboxamide]	< 1000
CC(=O)c1cn(CC(=O)N2C[C@H](F)C[C@H]2C(=O)Nc2cccc(-c3ccccc3Cl)c2F)c2ccc(-c3cnc(O)nc3)cc12 [Compound 186, (2S,4R)-1-(2-(3-acetyl-5-(2-hydroxypyrimidin-5-yl)-1H-indol-1-yl)acetyl)-N-(2′-chloro-2-fluorobiphenyl-3-yl)-4-fluoropyrrolidine-2-carboxamide]	< 1000
COCCNc1ncc(-c2ccc3c(c2)c(C(C)=O)cn3CC(=O)N2C[C@H](F)C[C@H]2C(=O)Nc2cccc(-c3ccccc3Cl)c2F)cn1 [Compound 187, (2S,4R)-1-(2-(3-acetyl-5-(2-(2-methoxyethylamino)pyrimidin-5-yl)-1H-indol-1-yl)acetyl)-N-(2′-chloro-2-fluorobiphenyl-3-yl)-4-fluoropyrrolidine-2-carboxamide]	< 1000
CNc1ncc(-c2ccc3c(c2)c(C(C)=O)cn3CC(=O)N2C[C@H](F)C[C@H]2C(=O)Nc2cccc(-c3ccccc3Cl)c2F)cn1 [Compound 188, (2S,4R)-1-(2-(3-acetyl-5-(2-(methylamino)pyrimidin-5-yl)-1H-indol-1-yl)acetyl)-N-(2′-chloro-2-fluorobiphenyl-3-yl)-4-fluoropyrrolidine-2-carboxamide]	< 1000
CC(=O)c1nn(CC(=O)N2[C@@H]3C[C@@H]3C[C@H]2C(=O)Nc2cccc(-c3ccccc3Cl)c2F)c2ccc(-c3cnc(C)nc3)cc12 [Compound 189, (1R,3S,5R)-2-(2-(3-acetyl-5-(2-methylpyrimidin-5-yl)-1H-indazol-1-yl)acetyl)-N-(2′-chloro-2-fluorobiphenyl-3-yl)-2-azabicyclo[3.1.0] hexane-3-carboxamide]	< 1000
CC(=O)c1nn(CC(=O)N2[C@@H]3C[C@@H]3C[C@H]2C(=O)Nc2cccc(Br)n2)c2ccc(-c3cnc(C)nc3)cc12 [Compound 190, (1R,3S,5R)-2-(2-(3-acetyl-5-(2-methylpyrimidin-5-yl)-1H-indazol-1-yl)acetyl)-N-(6-bromopyridin-2-yl)-2-azabicyclo[3.1.0] hexane-3-carboxamide]	< 1000
CC(=O)c1cn(CC(=O)N2C[C@H](F)C[C@H]2C(=O)Nc2cccc(-c3ccccc3Cl)c2F)c2ccc(-c3cnc(C(F)(F)F)nc3)cc12 [Compound 191, (2S,4R)-1-(2-(3-acetyl-5-(2-(trifluoromethyl)pyrimidin-5-yl)-1H-indol-1-yl)acetyl)-N-(2′-chloro-2-fluorobiphenyl-3-yl)-4-fluoropyrrolidine-2-carboxamide]	< 1000

Same assay, conditions: Human Factor D assay of Example 8; Table 2; read-out: IC50

Compound	IC50 [nM]
CC(=O)c1ccc(Cl)c(-c2cccc(NC(=O)[C@@H]3C[C@@H](F)CN3C(=O)Cn3nc(C(C)=O)c4cc(-c5cnc(C)nc5)ccc43)c2F)c1 [Compound 192, (2S,4R)-N-(5′-acetyl-2′-chloro-2-fluorobiphenyl-3-yl)-1-(2-(3-acetyl-5-(2-methylpyrimidin-5-yl)-1H-indazol-1-yl)acetyl)-4-fluoropyrrolidine-2-carboxamide]	< 1000
CC(=O)c1cn(CC(=O)N2C[C@H](F)C[C@H]2C(=O)Nc2cccc(-c3ccccc3Cl)c2F)c2ccc(-c3cnc(NCC(F)(F)F)nc3)cc12 [Compound 193, (2S,4R)-1-(2-(3-acetyl-5-(2-(2,2,2-trifluoroethylamino)pyrimidin-5-yl)-1H-indol-1-yl)acetyl)-N-(2′-chloro-2-fluorobiphenyl-3-yl)-4-fluoropyrrolidine-2-carboxamide]	< 1000
CCOc1ncc(-c2ccc3c(c2)c(C(C)=O)cn3CC(=O)N2C[C@H](F)C[C@H]2C(=O)Nc2cccc(-c3ccccc3Cl)c2F)cn1 [Compound 194, (2S,4R)-1-(2-(3-acetyl-5-(2-ethoxypyrimidin-5-yl)-1H-indol-1-yl)acetyl)-N-(2′-chloro-2-fluorobiphenyl-3-yl)-4-fluoropyrrolidine-2-carboxamide]	< 1000
NC(=O)c1nn(CC(=O)N2C[C@H](F)C[C@H]2C(=O)Nc2cccnc2O)c2ccc(-c3ccnnc3)cc12 [Compound 196, 1-(2-((2S,4R)-4-fluoro-2-(2-hydroxypyridin-3-ylcarbamoyl)pyrrolidin-1-yl)-2-oxoethyl)-5-(pyridazin-4-yl)-1H-indazole-3-carboxamide]	> 10000
CC(=O)c1cn(CC(=O)N2C[C@H](F)C[C@H]2C(=O)Nc2cccnc2O)c2ccc(-c3ccnnc3)cc12 [Compound 197]	> 10000
CC(=O)c1nn(CC(=O)N2C[C@H](F)C[C@H]2C(=O)Nc2cccc(-c3cc(C(N)=O)ccc3Cl)c2F)c2ccc(-c3cnc(C)nc3)cc12 [Compound 198, (2S,4R)-1-(2-(3-acetyl-5-(2-methylpyrimidin-5-yl)-1H-indazol-1-yl)acetyl)-N-(5′-carbamoyl-2′-chloro-2-fluorobiphenyl-3-yl)-4-fluoropyrrolidine-2-carboxamide]	< 1000
Cc1ncc(-c2ccc3c(c2)c(C(N)=O)nn3CC(=O)N2[C@@H]3C[C@@H]3C[C@H]2C(=O)Nc2cccc(Br)n2)cn1 [Compound 202, 1-(2-((1R,3S,5R)-3-(6-bromopyridin-2-ylcarbamoyl)-2-azabicyclo[3.1.0]hexan-2-yl)-2-oxoethyl)-5-(2-methylpyrimidin-5-yl)-1H-indazole-3-carboxamide]	< 1000
COc1ncc(-c2ccc3c(c2)c(C(C)=O)cn3CC(=O)N2C[C@H](Cl)C[C@H]2C(=O)Nc2cccc(-c3ccccc3Cl)c2F)cn1 [Compound 203]	< 1000
COC(=O)c1ncc(-c2ccc3c(c2)c(C(C)=O)cn3CC(=O)N2C[C@H](F)C[C@H]2C(=O)Nc2cccc(-c3ccccc3Cl)c2F)cn1 [Compound 204, methyl 5-(3-acetyl-1-(2-((2S,4R)-2-(2′-chloro-2-fluorobiphenyl-3-ylcarbamoyl)-4-fluoropyrrolidin-1-yl)-2-oxoethyl)-1H-indol-5-yl)pyrimidine-2-carboxylate]	< 1000
CC(=O)c1cn(CC(=O)N2C[C@H](F)C[C@H]2C(=O)Nc2cccc(-c3ccccc3Cl)c2F)c2ccc(-c3cnc(C(=O)O)nc3)cc12 [Compound 205, 5-(3-acetyl-1-(2-((2S,4R)-2-(2′-chloro-2-fluorobiphenyl-3-ylcarbamoyl)-4-fluoropyrrolidin-1-yl)-2-oxoethyl)-1H-indol-5-yl)pyrimidine-2-carboxylic acid]	< 1000
CC(=O)c1cn(CC(=O)N2C[C@H](F)C[C@H]2C(=O)Nc2cccc(-c3ccncc3Cl)c2F)c2ccc(-c3cnc(C)nc3)cc12 [Compound 206, (2S,4R)-1-(2-(3-acetyl-5-(2-methylpyrimidin-5-yl)-1H-indol-1-yl)acetyl)-N-(3-(3-chloropyridin-4-yl)-2-fluorophenyl)-4-fluoropyrrolidine-2-carboxamide]	< 1000
CC(=O)c1cn(CC(=O)N2C[C@H](F)C[C@H]2C(=O)Nc2cccc(-c3ccccc3Cl)c2F)c2ccc(-c3cnc(C)c(Cl)c3)cc12 [Compound 207, (2S,4R)-1-(2-(3-acetyl-5-(5-chloro-6-methylpyridin-3-yl)-1H-indol-1-yl)acetyl)-N-(2′-chloro-2-fluorobiphenyl-3-yl)-4-fluoropyrrolidine-2-carboxamide]	< 1000
NC(=O)c1nn(CC(=O)N2C[C@H](F)C[C@H]2C(=O)Nc2cccc(-c3ccccc3Cl)c2F)cc1-c1ccsc1 [Compound 208, 1-(2-((2S,4R)-2-(2′-chloro-2-fluorobiphenyl-3-ylcarbamoyl)-4-fluoropyrrolidin-1-yl)-2-oxoethyl)-4-(thiophen-3-yl)-1H-pyrazole-3-carboxamide]	1000 to 10000
CC(=O)c1cn(CC(=O)N2C[C@H](F)C[C@H]2C(=O)Nc2cccc(-c3ccccc3Cl)c2F)c2ccc(-c3cnc(C(N)=O)nc3)cc12 [Compound 209, 5-(3-acetyl-1-(2-((2S,4R)-2-(2′-chloro-2-fluorobiphenyl-3-ylcarbamoyl)-4-fluoropyrrolidin-1-yl)-2-oxoethyl)-1H-indol-5-yl)pyrimidine-2-carboxamide]	< 1000
CC(=O)c1cn(CC(=O)N2C[C@H](F)C[C@H]2C(=O)Nc2cccc(-c3ccccc3Cl)c2F)c2ccc(-c3cnc(S(C)(=O)=O)nc3)cc12 [Compound 210, (2S,4R)-1-(2-(3-acetyl-5-(2-(methylsulfonyl)pyrimidin-5-yl)-1H-indol-1-yl)acetyl)-N-(2′-chloro-2-fluorobiphenyl-3-yl)-4-fluoropyrrolidine-2-carboxamide]	< 1000
CC(=O)c1cn(CC(=O)N2C[C@H](F)C[C@H]2C(=O)Nc2cccc(-c3ccccc3Cl)c2F)c2ccc(-c3cnc(C(=O)NC4CC4)nc3)cc12 [Compound 211, 5-(3-acetyl-1-(2-((2S,4R)-2-(2′-chloro-2-fluorobiphenyl-3-ylcarbamoyl)-4-fluoropyrrolidin-1-yl)-2-oxoethyl)-1H-indol-5-yl)-N-cyclopropylpyrimidine-2-carboxamide]	< 1000
